Results: patent publication US20130131075A1, “NEW COMPOUNDS” (Boehringer Ingelheim International GmbH, priority 2009, published 2013)

Each molecule was assayed against T1, cynomolgus BK1-receptor (Macaca fascicularis, UniProt Q3BCU0) (assay: cynoBK1-receptor binding assay). Settings: CHO cells expressing cynomolgus BK1-receptor, radioligand kallidine (DesArg10,Leu9).
T1 construct: expressed in transfected cells; host or cells: CHO cells (homogenate)
T1 sequence (Q3BCU0 1-352): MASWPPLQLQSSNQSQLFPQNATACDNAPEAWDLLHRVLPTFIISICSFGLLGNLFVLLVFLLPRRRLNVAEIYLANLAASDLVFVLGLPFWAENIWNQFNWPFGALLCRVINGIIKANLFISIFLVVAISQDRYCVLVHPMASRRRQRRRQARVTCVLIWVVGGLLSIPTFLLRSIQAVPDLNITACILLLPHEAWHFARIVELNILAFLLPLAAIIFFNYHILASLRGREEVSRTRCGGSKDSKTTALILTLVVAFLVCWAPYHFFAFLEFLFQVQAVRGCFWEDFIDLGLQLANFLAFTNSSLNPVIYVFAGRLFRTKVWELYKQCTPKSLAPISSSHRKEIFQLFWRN
Summary of the method: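 Radioligand competition on homogenates of CHO cells expressing cynomolgus BK1 receptor (50 to 250 μg protein/assay), incubated 60-180 minutes at ambient temperature with 0.5 to 5.0 nM [3H]kallidine (DesArg10,Leu9) plus increasing test compound. Filtration binding; non-specific defined with 1.0 μM kallidine (DesArg10); Ki from non-linear curve fitting.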

Compound | Ki [nM]
CC(NC(=O)[C@]1(NC(=O)c2cncnc2)CCOC1)c1ccc(Nc2ccc(Br)cc2C(F)(F)F)cn1 (some centres unmarked) [(188)] | 43
Cc1ccc(Nc2ccc(CNC(=O)C3(NC(=O)c4cncnc4)CC3)nc2)c(Cl)c1 [(189)] | > 500
O=C(O)c1ccc(Nc2ccc(CNC(=O)C3(NC(=O)c4cncnc4)CC3)nc2)c(C(F)(F)F)c1 [(195)] | > 500
COC(=O)c1ccc(Nc2ccc(CNC(=O)C3(NC(=O)c4cncnc4)CC3)nc2)c(C(F)(F)F)c1 [(196)] | > 500
N#Cc1ccc(Nc2ccc(CNC(=O)C3(NC(=O)c4cncnc4)CC3)nc2)c(C(F)(F)F)c1 [(197)] | > 500
NC(=O)c1ccc(Nc2ccc(CNC(=O)C3(NC(=O)c4cncnc4)CC3)nc2)c(C(F)(F)F)c1 [(198)] | > 500
CC(NC(=O)C1(NC(=O)c2cncnc2)CC1)c1ncc(Nc2ccc(Cl)cc2C(F)(F)F)cc1F (centres unmarked) [(203)] | 1.9
CC(C)c1ccc(Nc2ccc(CNC(=O)C3(NC(=O)c4cncnc4)CC3)nc2)c(C(F)(F)F)c1 [(204)] | 402
O=C(NC1(C(=O)NCc2ccc(Nc3ccc(Cl)cc3C(F)(F)F)cn2)CC1)c1cncc(O)c1 [(205)] | 17
Nc1ccc(C(=O)NC2(C(=O)NCc3ccc(Nc4ccc(Cl)cc4C(F)(F)F)cn3)CC2)cn1 [(206)] | 5.1
O=C(NC1(C(=O)NCc2ccc(Nc3ccc(Cl)cc3C(F)(F)F)cn2)CC1)c1ccnc(O)c1 [(207)] | 84
O=C(NC1(C(=O)NCc2ccc(Nc3ccc(Cl)cc3C(F)(F)F)cn2)CC1)c1cc(O)nc(O)n1 [(208)] | 6.8
O=C(NC1(C(=O)NCc2ccc(Nc3ccc(Cl)cc3C(F)(F)F)cn2)CC1)c1ccnnc1 [(209)] | 73
CN(C)c1ncc(C(=O)NC2(C(=O)NCc3ccc(Nc4ccc(Cl)cc4C(F)(F)F)cn3)CC2)cn1 [(210)] | 187
O=C(NC1(C(=O)NCc2ccc(Nc3ccc(Cl)cc3C(F)(F)F)cn2)CC1)c1cccc(O)n1 [(211)] | 25
CC(NC(=O)C1(NC(=O)c2cncnc2)CC1)c1ncc(Nc2ccc(F)cc2C#N)cc1F (centres unmarked) [(212)] | 8
CC(NC(=O)C1(NC(=O)c2cncnc2)CC1)c1ncc(Nc2ccc(Br)cc2C(F)(F)F)cc1F (centres unmarked) [(213)] | 1.9
Nc1cncc(C(=O)N[C@@]2(C(=O)NCc3ccc(Nc4ccc(F)cc4C(F)(F)F)cc3)CCOC2)c1 [(214)] | 13
O=C(N[C@@]1(C(=O)NCc2ncc(Nc3ccc(F)cc3C(F)(F)F)cc2Cl)CCOC1)c1cncnc1 [(216)] | 7.8
Nc1cncc(C(=O)NC2(C(=O)NCc3ccc(Nc4ccc(Cl)cc4C(F)(F)F)cn3)CC2)c1 [(217)] | 12
Nc1cncc(C(=O)NC2(C(=O)NCc3ncc(Nc4ccc(F)cc4C(F)(F)F)cc3Cl)CC2)c1 [(218)] | 3.7
Nc1cncc(C(=O)N[C@@]2(C(=O)NCc3ncc(Nc4ccc(F)cc4C(F)(F)F)cc3Cl)CCOC2)c1 [(219)] | 8.9
O=C(N[C@@]1(C(=O)NCc2ncc(Nc3ccc(F)cc3C(F)(F)F)cc2Cl)CCOC1)c1cnc2[nH]cnc2c1 [(220)] | 15
Cn1ncc(C(=O)NC2(C(=O)NCc3ccc(Nc4ccc(F)cc4C(F)(F)F)cn3)CC2)cc1=O [(221)] | 13
Nc1cncc(C(=O)N[C@@]2(C(=O)NCc3ccc(Nc4ccc(Br)cc4C(F)(F)F)cn3)CCOC2)c1 [(222)] | 68
O=C(N[C@@]1(C(=O)NCc2ccc(Nc3ccc(Br)cc3C(F)(F)F)cn2)CCOC1)c1cncnc1 [(223)] | 75
CNc1ncc(C(=O)N[C@@]2(C(=O)NCc3ncc(Nc4ccc(F)cc4C(F)(F)F)cc3Cl)CCOC2)cn1 [(224)] | 6.3
O=C(CC(F)(F)F)N[C@@]1(C(=O)NCc2ncc(Nc3ccc(F)cc3C(F)(F)F)cc2Cl)CCOC1 [(225)] | 68

Results, then the molecule that gave them:

Ki [nM] | Compound
157 | Nc1cncc(C(=O)N[C@@]2(C(=O)NCc3ccc(Nc4ccc(Cl)cc4C(F)(F)F)cn3)CCOC2)c1 [(226)]
97 | CNc1cc(C(=O)NC2(C(=O)NCc3ccc(Nc4ccc(F)cc4C(F)(F)F)cn3)CC2)cnn1 [(227)]
78 | O=C(N[C@@]1(C(=O)NCc2ccc(Nc3ccc(Cl)cc3C(F)(F)F)cn2)CCOC1)c1cncnc1 [(228)]
27 | Nc1cncc(C(=O)N[C@@]2(C(=O)NCc3ncc(Nc4ccccc4C(F)(F)F)cc3Cl)CCOC2)c1 [(229)]
6.1 | COc1ncc(C(=O)N[C@@]2(C(=O)NCc3ncc(Nc4ccc(F)cc4C(F)(F)F)cc3Cl)CCOC2)cn1 [(230)]
4.2 | Nc1cncc(C(=O)N[C@@]2(C(=O)NCc3ccc(Nc4ccc(F)cc4C(F)(F)F)cc3F)CCOC2)c1 [(231)]
5.6 | Cc1ncc(C(=O)NC2(C(=O)NCc3ccc(Nc4ccc(F)cc4C(F)(F)F)cn3)CC2)cn1 [(232)]
10 | COc1ncc(C(=O)NC2(C(=O)NCc3ccc(Nc4ccc(F)cc4C(F)(F)F)cn3)CC2)cn1 [(233)]
105 | O=C(NC1(C(=O)NCc2ccc(Nc3ccc(Br)cc3C(F)(F)F)cn2)CC1)c1ccc(O)nc1 [(234)]
489 | COc1ccc(C(=O)NC2(C(=O)NCc3ccc(Nc4ccc(Br)cc4C(F)(F)F)cn3)CC2)cn1 [(235)]
8.2 | Nc1cncc(C(=O)N[C@@]2(C(=O)NCc3ccc(Nc4ccccc4C(F)(F)F)cc3F)CCOC2)c1 [(236)]
151 | Nc1cncc(C(=O)N[C@@]2(C(=O)NCc3ncc(Nc4c(F)cccc4C(F)(F)F)cc3Cl)CCOC2)c1 [(237)]
6.6 | COc1ncc(C(=O)N[C@@]2(C(=O)NCc3ncc(Nc4ccc(F)cc4C(F)(F)F)cc3F)CCOC2)cn1 [(238)]
182 | O=C(NC1(C(=O)NCc2ccc(Nc3ccc(Cl)cc3C(F)(F)F)cn2)CC1)c1ccc(O)nc1 [(239)]
506 | COc1ccc(C(=O)NC2(C(=O)NCc3ccc(Nc4ccc(Cl)cc4C(F)(F)F)cn3)CC2)cn1 [(240)]
68 | CNc1ncc(C(=O)N[C@@]2(C(=O)NCc3ncc(Nc4c(F)cccc4C(F)(F)F)cc3Cl)CCOC2)cn1 [(241)]
15 | O=C(N[C@@]1(C(=O)NCc2ncc(Nc3ccc(Cl)cc3C(F)(F)F)cc2F)CCOC1)c1cncnc1 [(242)]

Ki [nM] | Compound
28 | O=C(NC1(C(=O)NCc2ccc(Nc3ccc(F)cc3C(F)(F)F)cn2)CC1)c1cncc(O)c1 [(243)]
8.4 | Nc1ccc(C(=O)NC2(C(=O)NCc3ccc(Nc4ccc(F)cc4C(F)(F)F)cn3)CC2)cn1 [(244)]
18 | CC(C)c1ncc(C(=O)NC2(C(=O)NCc3ccc(Nc4ccc(F)cc4C(F)(F)F)cn3)CC2)cn1 [(245)]
21 | O=C(NC1(C(=O)NCc2ccc(Nc3ccc(F)cc3C(F)(F)F)cn2)CC1)c1cnc(C(F)(F)F)nc1 [(246)]
3.9 | CCNc1ncc(C(=O)NC2(C(=O)NCc3ccc(Nc4ccc(F)cc4C(F)(F)F)cn3)CC2)cn1 [(247)]
276 | O=C(NC1(C(=O)NCc2ccc(Nc3ccc(F)cc3C(F)(F)F)cn2)CC1)c1cnc(N2CCCCC2)nc1 [(248)]
518 | CC(=O)Nc1cncc(C(=O)NC2(C(=O)NCc3ccc(Nc4ccc(F)cc4C(F)(F)F)cn3)CC2)c1 [(249)]
175 | O=C(NC1(C(=O)NCc2ccc(Nc3ccc(F)cc3C(F)(F)F)cn2)CC1)c1cnc(N2CCCC2)nc1 [(250)]
14 | CC(=O)Nc1ccc(C(=O)NC2(C(=O)NCc3ccc(Nc4ccc(F)cc4C(F)(F)F)cn3)CC2)cn1 [(251)]
120 | CN(C)c1cc(C(=O)NC2(C(=O)NCc3ccc(Nc4ccc(F)cc4C(F)(F)F)cn3)CC2)cnn1 [(252)]
49 | O=C(NC1(C(=O)NCc2ccc(Nc3ccc(F)cc3C(F)(F)F)cn2)CC1)c1ccc(Cl)nc1 [(253)]
257 | O=C(NC1(C(=O)NCc2ccc(Nc3ccc(F)cc3C(F)(F)F)cn2)CC1)c1ccc(C(F)(F)F)nc1 [(254)]
15 | O=C(NC1(C(=O)NCc2ccc(Nc3ccc(F)cc3C(F)(F)F)cn2)CC1)c1cnc2cc[nH]c2c1 [(255)]
72 | N#Cc1ccc(C(=O)NC2(C(=O)NCc3ccc(Nc4ccc(F)cc4C(F)(F)F)cn3)CC2)cn1 [(256)]
17 | CC(=O)Nc1ncc(C(=O)NC2(C(=O)NCc3ccc(Nc4ccc(F)cc4C(F)(F)F)cn3)CC2)s1 [(257)]
37 | COc1ncc(C(=O)N[C@@]2(C(=O)NCc3ncc(Nc4c(F)cccc4C(F)(F)F)cc3Cl)CCOC2)cn1 [(258)]

Same assay, conditions: at 10 μgmol/L; CHO cells expressing cynomolgus BK1-receptor, radioligand kallidine (DesArg10,Leu9)

inhibition at 10 µM [%] | Compound
100 | O=C(NC1(C(=O)NCc2ncc(Nc3ccc(F)cc3C(F)(F)F)cc2Cl)CC1)c1cncnc1 [(187)]
92 | CC(NC(=O)[C@]1(NC(=O)c2cncnc2)CCOC1)c1ccc(Nc2ccc(Br)cc2C(F)(F)F)cn1 (some centres unmarked) [(188)]
96 | Cc1ccc(Nc2ccc(CNC(=O)C3(NC(=O)c4cncnc4)CC3)nc2)c(Cl)c1 [(189)]
91 | O=C(NC1(C(=O)NCc2ccc(Nc3ccc(F)cc3Cl)cn2)CC1)c1cncnc1 [(190)]
56 | O=C(NC1(C(=O)NCc2ccc(Nc3ccccc3C(F)(F)F)cn2)CCCCC1)c1cncnc1 [(191)]
95 | O=C(NC1(C(=O)NCc2ccc(Nc3ccccc3C(F)(F)F)cn2)CCC(O)C1)c1cncnc1 (centres unmarked) [(192)]
101 | O=C1CCC(NC(=O)c2cncnc2)(C(=O)NCc2ccc(Nc3ccccc3C(F)(F)F)cn2)C1 (centres unmarked) [(193)]
95 | O=C(NC1(C(=O)NCc2ccc(Nc3ccccc3C(F)(F)F)cn2)CC[S+]([O-])C1)c1cncnc1 (centres unmarked) [(194)]
42 | O=C(O)c1ccc(Nc2ccc(CNC(=O)C3(NC(=O)c4cncnc4)CC3)nc2)c(C(F)(F)F)c1 [(195)]
82 | COC(=O)c1ccc(Nc2ccc(CNC(=O)C3(NC(=O)c4cncnc4)CC3)nc2)c(C(F)(F)F)c1 [(196)]
81 | N#Cc1ccc(Nc2ccc(CNC(=O)C3(NC(=O)c4cncnc4)CC3)nc2)c(C(F)(F)F)c1 [(197)]
64 | NC(=O)c1ccc(Nc2ccc(CNC(=O)C3(NC(=O)c4cncnc4)CC3)nc2)c(C(F)(F)F)c1 [(198)]
92 | O=C(NC1(C(=O)NCc2ccc(Nc3c(F)cccc3Cl)cn2)CC1)c1cncnc1 [(200)]
